Structures are written as SMILES. Like-named read-outs stand apart in the source and are kept apart here.

In experiment [1] the test system is breast cancer MDA-MB-436 cell line. Nature of the experiment: 4-day cell viability assay, WST. The format is cell-based. The settings on record: Homo sapiens, MDA-MB-436, 96 h, read-out: Cell Growth Inhibition (IC50 (nM)) MDA-436 Cell Line (WST assay). On the procedure:
(§1) The effect of representative BET bromodomain inhibitors on cell viability was determined in a 4-day proliferation assay. Cells were maintained in the appropriate culture medium with 10% FBS at 37° C. and an atmosphere of 5% CO2. All the cell lines were used within three months of thawing fresh vials.
(§2) Cells were seeded in 96-well flat bottom (Corning COSTAR, Corning, N.Y., cat#3595) or white opaque cell culture plates (BD Falcon, cat#353296) at a density of 3,000-10,000 cells/well in 75 μl of culture medium. Compounds were serially diluted in the appropriate medium, and 75 μl of the diluted compounds were added to the appropriate wells of the cell plate. After the addition of compounds, the cells were incubated at 37° C. in an atmosphere of 5% CO2 for 4 days. Cell viability was determined using the CellTiter-Glo® Luminescent Cell Viability Assay Kit (Promega, Madison, Wis.) for MOLM-13 cells and WST (2-(2-methoxy-4-nitrophenyl)-3-(4-nitrophenyl)-5-(2,4-disulfophenyl)-2H-tetrazolium, monosodium salt) Cell Counting-8 Kit (Dojindo Molecular Technologies, Inc., Rockville, Md.) for MDA-MB-436 cells according to the manufacturers' instructions.
For the WST assay, WST-8 reagent was added to each well at a final concentration of 10% (v/v), and then the plates were incubated at 37° C. for 1-2 hours for color development. The absorbance was measured at 450 nm using a SPECTRAmax PLUS plate reader (Molecular Devices, Sunnyvale, Calif.). The readings were normalized to the DMSO-treated cells and the half maximal inhibitory concentration (IC50) was calculated by nonlinear regression (four parameters sigmoid fitted with variable slope, least squares fit, and no constraint) analysis using the GraphPad Prism 5 software (GraphPad Software, La Jolla, Calif.).

In experiment [2] the test system is leukemia MOLM-13 cell line. Nature of the experiment: 4-day cell viability assay, CellTiter-Glo. The class given is cell-based. The settings on record: Homo sapiens, MOLM-13, 96 h, read-out: Cell Growth Inhibition (IC50 (nM)) MOLM-13 Cell Line (CellTiter-Glo assay). On the procedure: as §1, §2
For the CellTiter-Glo assay, 100 μl of CellTiter-Glo® Reagent was added to each well, and then the plates were incubated at room temperature for 10-20 minutes. The luminescent signal was measured using a Tecan Infinite M1000 multimode microplate reader (Tecan, Morrisville, N.C.). The readings were normalized to the DMSO-treated cells and the IC50 was calculated by nonlinear regression (four parameters sigmoid fitted with variable slope, least squares fit, and no constraint) analysis using the GraphPad Prism 5 software.

Another experiment deals with BRD3 BD1 (Homo sapiens (Human), UniProt Q15059). Nature of the experiment: FP competitive binding assay using Cpd. No. 350 as the probe.
The target of the next experiment is BRD2 BD2 (Homo sapiens (Human), UniProt P25440). The experiment is described as above.
Another experiment addresses BRD4 BD1 (Homo sapiens (Human), UniProt O60885). The description is as above.
A further experiment deals with BRD2 BD1 (Homo sapiens (Human), UniProt P25440). The experiment is described as above.
The target of the next experiment is BRD3 BD2 (Homo sapiens (Human), UniProt Q15059). Described as above.
The next experiment concerns the target BRD4 BD2 (Homo sapiens (Human), UniProt O60885). The experiment is described as above.
Where [3] appears, read: read-out: BRD3 BD1 Ki, FP, Cpd. No. 350 probe […].
Where [4] appears, read: read-out: BRD2 BD2 Ki, FP, Cpd. No. 350 probe […].
Where [5] appears, read: read-out: BRD4 BD1 Ki, FP, Cpd. No. 350 probe […].
Where [6] appears, read: read-out: BRD2 BD1 Ki, FP, Cpd. No. 350 probe […].
Setting [7] is: read-out: BRD3 BD2 Ki, FP, Cpd. No. 350 probe […].
[8] abbreviates: read-out: BRD4 BD2 Ki, FP, Cpd. No. 350 probe […].

Sequence of BRD3 BD2 (Q15059 306-415): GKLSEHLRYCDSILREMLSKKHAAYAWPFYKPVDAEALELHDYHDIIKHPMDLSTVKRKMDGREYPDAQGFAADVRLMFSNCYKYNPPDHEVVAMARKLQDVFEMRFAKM
Sequence of BRD3 BD1 (Q15059 34-140): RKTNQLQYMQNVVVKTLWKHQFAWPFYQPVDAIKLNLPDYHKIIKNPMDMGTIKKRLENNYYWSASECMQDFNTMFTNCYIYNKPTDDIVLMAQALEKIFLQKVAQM
Sequence of BRD2 BD1 (P25440 74-180): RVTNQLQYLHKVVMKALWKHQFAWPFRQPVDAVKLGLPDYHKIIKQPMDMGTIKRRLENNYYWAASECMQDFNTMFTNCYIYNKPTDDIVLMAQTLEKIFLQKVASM
Sequence of BRD2 BD2 (P25440 344-453): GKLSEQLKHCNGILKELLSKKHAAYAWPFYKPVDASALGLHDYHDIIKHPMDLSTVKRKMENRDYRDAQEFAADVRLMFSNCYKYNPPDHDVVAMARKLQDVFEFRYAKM
Experimental for BRD2 BD1: (§3) Fluorescence Polarization (FP) competitive binding studies (see above) were carried out using the FAM labeled fluorescent probe Cpd. No. 350 to determine binding affinities of representative compounds to both BD1 and BD2 of BRD2, BRD3, and BRD4 proteins. Equilibrium dissociation constants (Id) values of Cpd. No. 350 to these six proteins were determined from protein saturation experiments by monitoring the total fluorescence polarization of mixtures composed with the fluorescent probe at a fixed concentration and proteins with increasing concentrations up to full saturation. Serial dilutions of testing protein were mixed with Cpd. No. 350 to a final volume of 200 μl in the assay buffer. […] Plates were incubated at room temperature for 30 minutes with gentle shaking to assure equilibrium. […] Kd values of Cpd.
(§4) The IC50 and Ki values of compounds were determined in a competitive binding experiment as described above. […] FP values were measured as described above. IC50 values were determined by nonlinear regression fitting of the competition curves.
Experimental for BRD2 BD2: as §3, §4
Experimental for BRD3 BD1: as §3, §4
Experimental for BRD3 BD2: as §3, §4
Experimental for BRD4 BD2: as §3, §4

For `COc1cc2c(cc1-c1c(C)noc1C)[nH]c1ccnc(-c3c(-c4ccccc4)n[nH]c3C)c12` [Cpd. No. 26, 4-(8-methoxy-1-(5-methyl-3-phenyl-1H-pyrazol-4-yl)-5H-pyrido[4,3-b]indol-7-yl)-3,5-dimethylisoxazole], the concentration for half-maximal inhibition (IC50) in experiment [1] (4 days) is 696 nM; in experiment [2] (4 days), 431 nM.

`COc1cc2c(cc1-c1c(C)nn(C)c1C)[nH]c1ccnc(-c3c(C)nn(C)c3C)c12` [Cpd. No. 33, 8-methoxy-1,7-bis(1,3,5-trimethyl-1H-pyrazol-4-yl)-5H-pyrido[4,3-b]indole]: the inhibition constant (Ki) was 1220 ± 100 nM at BRD3 BD1; 909 ± 272 nM at BRD2 BD2; 1726 ± 17 nM at BRD4 BD1; 1670 ± 448 nM at BRD2 BD1; 348 ± 12 nM on BRD3 BD2; 867 ± 107 nM at BRD4 BD2.

Regarding `COc1cc2c(cc1-c1c(C)noc1C)[nH]c1nc(C)nc(-c3cccc(C(C)(C)O)c3)c12` [Cpd. No. 183, 2-(3-(7-(3,5-Dimethylisoxazol-4-yl)-6-methoxy-2-methyl-9H-pyrimido[4,5-b]indol-4-yl)phenyl)propan-2-ol], the Ki on BRD3 BD1 (setting [3]) was 6.1 nM; at BRD2 BD2 (setting [4]), 8.8 nM; on BRD4 BD1 (setting [5]) it was 7.9 nM; at BRD2 BD1 (setting [6]), 5.2 nM; on BRD3 BD2 (setting [7]) it was 4.7 nM; on BRD4 BD2 (setting [8]), 11.7 nM. For the same compound, the half-inhibitory concentration (IC50) in experiment [1] (4 days) turned out to be 93 nM; in experiment [2] (4 days) it was 20 nM.

Turning to `COc1cc2c(cc1-c1c(C)noc1C)[nH]c1nc(C)nc(-c3ccc(C(=O)NC4CCN(C)CC4)c4ccccc34)c12` [Cpd. No. 196, 4-(7-(3,5-Dimethylisoxazol-4-yl)-6-methoxy-2-methyl-9H-pyrimido[4,5-b]indol-4-yl)-N-(1-methylpiperidin-4-yl)-1-naphthamide], the inhibition constant (Ki) at BRD3 BD1 (setting [3]) was 9.7 nM; at BRD2 BD2 (setting [4]) it was 3.5 nM; on BRD4 BD1 (setting [5]) it was 12.3 nM; on BRD2 BD1 (setting [6]), 4.3 nM; on BRD3 BD2 (setting [7]), 1.4 nM; at BRD4 BD2 (setting [8]), 7 nM. Besides, the IC50 was 53 nM in experiment [1] (4 days) and 6.8 nM in experiment [2] (4 days).

As for `COc1cc2c(cc1-c1c(C)noc1C)[nH]c1nc(C)nc(-c3ccc(C(=O)NC4CCN(C5COC5)CC4)c4ccccc34)c12` [Cpd. No. 197, 4-(7-(3,5-Dimethylisoxazol-4-yl)-6-methoxy-2-methyl-9H-pyrimido[4,5-b]indol-4-yl)-N-(1-(oxetan-3-yl)piperidin-4-yl)-1-naphthamide], the Ki was determined as 10.5 nM at BRD3 BD1 (setting [3]); 3.6 nM on BRD2 BD2 (setting [4]); 17.1 nM at BRD4 BD1 (setting [5]); 6.2 nM at BRD2 BD1 (setting [6]); 1.3 nM on BRD3 BD2 (setting [7]); 8.9 nM at BRD4 BD2 (setting [8]). In addition, the results for the IC50 in experiment [1] (4 days) and in experiment [2] (4 days) were 101 nM and 17.3 nM, respectively.

For `COc1cc2c(cc1-c1c(C)noc1C)[nH]c1nc(C)nc(-c3ccc(C(=O)N4CCN(C)CC4)c4ccccc34)c12` [Cpd. No. 207, (4-(7-(3,5-Dimethylisoxazol-4-yl)-6-methoxy-2-methyl-9H-pyrimido[4,5-b]indol-4-yl)naphthalen-1-yl)(4-methylpiperazin-1-yl)methanone], the Ki at BRD3 BD1 (setting [3]) was determined as 10 nM; on BRD2 BD2 (setting [4]) it was 5.1 nM; on BRD4 BD1 (setting [5]), 14.7 nM; at BRD2 BD1 (setting [6]), 5.3 nM; at BRD3 BD2 (setting [7]), 1.3 nM; on BRD4 BD2 (setting [8]) it was 4.1 nM. For the same compound, the results for the IC50 in experiment [1] (4 days) and in experiment [2] (4 days) were 58.1 nM and 5.3 nM, respectively.

Take `COc1cc2c(cc1-c1c(C)noc1C)[nH]c1nc(C)nc(-c3cc(C(=O)NC4CCN(C)CC4)[nH]c3C(C)C)c12` [Cpd. No. 211, 4-(7-(3,5-Dimethylisoxazol-4-yl)-6-methoxy-2-methyl-9H-pyrimido[4,5-b]indol-4-yl)-5-isopropyl-N-(1-methylpiperidin-4-yl)-1H-pyrrole-2-carboxamide]: the Ki was found to be 10.8 nM on BRD3 BD1 (setting [3]); 4.9 nM on BRD2 BD2 (setting [4]); 17.2 nM at BRD4 BD1 (setting [5]); 5.7 nM on BRD2 BD1 (setting [6]); 1.2 nM at BRD3 BD2 (setting [7]); 5.2 nM at BRD4 BD2 (setting [8]). For the same compound, the half-maximal inhibitory concentration (IC50) in experiment [1] (4 days) is 140 nM; in experiment [2] (4 days), 10.4 nM.

Consider `COc1cc2c(cc1-c1c(C)noc1C)[nH]c1nc(C)nc(-c3cc(C(=O)NC4CCN(C5CCOCC5)CC4)[nH]c3C(C)C)c12` [Cpd. No. 212, 4-(7-(3,5-Dimethylisoxazol-4-yl)-6-methoxy-2-methyl-9H-pyrimido[4,5-b]indol-4-yl)-5-isopropyl-N-(1-(tetrahydro-2H-pyran-4-yl)piperidin-4-yl)-1H-pyrrole-2-carboxamide], for which the Ki came to 10.2 nM at BRD3 BD1 (setting [3]); 4.6 nM on BRD2 BD2 (setting [4]); 17 nM at BRD4 BD1 (setting [5]); 5.7 nM on BRD2 BD1 (setting [6]); 1 nM on BRD3 BD2 (setting [7]); 4.5 nM at BRD4 BD2 (setting [8]). Besides, the concentration for half-maximal inhibition (IC50) was 100 nM in experiment [1] (4 days) and 22 nM in experiment [2] (4 days).

On to `COc1cc2c(cc1-c1c(C)noc1C)[nH]c1nc(C)nc(-c3ccc(NC(=O)N4CCN(C)CC4)c4ccccc34)c12` [Cpd. No. 316], for which the IC50 came to 45.2 nM in experiment [1] and 7.4 nM in experiment [2].

For `COc1cc2c(cc1-c1c(C)noc1C)[nH]c1nc(C)nc(-c3ccc(NC(=O)N4CCN(C5COC5)CC4)c4ccccc34)c12` [Cpd. No. 317], the concentration for half-maximal inhibition (IC50) in experiment [1] turned out to be 169 nM; in experiment [2], 31.6 nM.

Consider `COc1cc2c(cc1-c1c(C)noc1C)[nH]c1nc(C)nc(-c3cc(C(=O)NC4CCN(C)CC4)cc(C(C)(C)C)c3)c12` [Cpd. No. 319], for which the concentration for half-maximal inhibition (IC50) in experiment [1] was found to be 67.4 nM; in experiment [2], 10 nM.

For `COc1cc2c(cc1-c1c(C)noc1C)[nH]c1nc(C)nc(-c3cc(C(=O)NC4CCN(C5COC5)CC4)cc(C(C)(C)C)c3)c12` [Cpd. No. 322], the concentration for half-maximal inhibition (IC50) in experiment [1] came out at 63.9 nM; in experiment [2], 19.4 nM.

For the compound `COc1cc2c(cc1-c1c(C)noc1C)[nH]c1ccnc(Cl)c12` [RX-3, 4-(1-chloro-8-methoxy-5H-pyrido[4,3-b]indol-7-yl)-3,5-dimethylisoxazole], the Ki turned out to be 144 ± 17 nM on BRD3 BD1 (setting [3]); 109 ± 10 nM on BRD2 BD2 (setting [4]); 305 ± 26 nM at BRD4 BD1 (setting [5]); 215 ± 34 nM on BRD2 BD1 (setting [6]); 63.8 ± 6 nM at BRD3 BD2 (setting [7]); 194 ± 24 nM on BRD4 BD2 (setting [8]).

As to `COc1cc2c(cc1-c1c(C)nn(C)c1C)[nH]c1ccnc(Cl)c12` [RX-27], the inhibition constant Ki was found to be 5030 ± 1010 nM on BRD3 BD1 (setting [3]); 2840 ± 574 nM at BRD2 BD2 (setting [4]); 4842 ± 29 nM on BRD4 BD1 (setting [5]); 5450 ± 1920 nM on BRD2 BD1 (setting [6]); 2050 ± 142 nM on BRD3 BD2 (setting [7]); 1950 ± 175 nM at BRD4 BD2 (setting [8]).

Turning to `CCc1onc(C)c1-c1cc2[nH]c3ccnc(Cl)c3c2cc1OC` [RX-38], the Ki on BRD3 BD1 (setting [3]) is 703 ± 432 nM; at BRD2 BD2 (setting [4]), 1880 ± 432 nM; at BRD4 BD1 (setting [5]) it was 2810 ± 782 nM; on BRD2 BD1 (setting [6]) it was 760 ± 240 nM; at BRD3 BD2 (setting [7]), 1280 ± 1070 nM; at BRD4 BD2 (setting [8]) it was 2180 ± 132 nM.

For the compound `CCc1noc(C)c1-c1cc2[nH]c3ccnc(Cl)c3c2cc1OC` [RX-39], the Ki on BRD3 BD1 (setting [3]) is 668 ± 82 nM; on BRD2 BD2 (setting [4]), 638 ± 70 nM; on BRD4 BD1 (setting [5]), 1240 ± 549 nM; at BRD2 BD1 (setting [6]), 1720 ± 892 nM; on BRD3 BD2 (setting [7]), 406 ± 192 nM; on BRD4 BD2 (setting [8]), 478 ± 69 nM.

Take `CCc1noc(CC)c1-c1cc2[nH]c3ccnc(Cl)c3c2cc1OC` [RX-45]: the inhibition constant Ki was above 10000 nM at BRD4 BD1 (setting [5]), 3440 ± 1980 nM at BRD3 BD2 (setting [7]) and 8320 ± 3220 nM at BRD4 BD2 (setting [8]).
